# Experimental data published in patent publication US20170349638A1, “COMPANION DIAGNOSTIC TOOL FOR PEPTIDOMIMETIC MACROCYCLES” (AILERON Therapeutics, Inc., priority 2016, published 2017).
# Where a SMILES comes first, the peptide text is derived from it. Bridges are numbered along the chain shown (N, C = ends). [ ]: non-standard residue; d: D form. Phe(4-COOH) = N[C@@H](Cc1ccc(C(=O)O)cc1)C(=O)O; R8 = C=CCCCCCC[C@@](C)(N)C(=O)O; Cba = N[C@@H](CC1CCC1)C(=O)O; S5 = C=CCCC[C@](C)(N)C(=O)O; Nle = CCCC[C@H](N)C(=O)O
# Experiments:
# [1] = Circular dichroism (CD) analysis of alpha-helicity; type: physicochemical; details: 222 nm; for Molar Ellipticity 50% TFE (222 in 50% TFE): CD buffer with 50% TFE; for Molar Ellipticity 50% TFE (222 in 50% TFE) / Molar Ellipticity Benign (222 in 0% TFE): 0.05 mg/ml, 4° C.; for Molar Ellipticity Benign (222 in 0% TFE): benign CD buffer (20 mM phosphoric acid, pH 2); for Molar Ellipticity TFE − Molar Ellipticity Benign: difference 50% TFE minus benign buffer
# Procedure: A Peltier temperature controller was used to maintain temperature control of the optical cell. Results are expressed as mean molar ellipticity [θ] […] Peptide concentrations were determined by amino acid analysis. Stock solutions of peptides were prepared in benign CD buffer (20 mM phosphoric acid, pH 2). The stocks were used to prepare peptide solutions of 0.05 mg/ml in either benign CD buffer or CD buffer with 50% trifluoroethanol (TFE) for analyses in a 10 mm pathlength cell. […] The average of six scans was reported.
# [2] = system: MCF-7 breast cancer xenograft; test: MCF-7 breast cancer xenograft study; type: in vivo, female nude (Crl:NU-Foxn1nu) mice; details: for mice died during treatment: 10 mice per group
# Procedure: A negative control stapled peptide. […] Slow release 90 day 0.72 mg 17β-estradiol pellets (Innovative Research, Sarasota, Fla.) were implanted subcutaneously (sc) on the nape of the neck one day prior to tumor cell implantation (Day −1). On Day 0, MCF-7 tumor cells were implanted sc in the flank of female nude (Crl:NU-Foxn1nu) mice. On Day 18, the resultant sc tumors were measured using calipers to determine their length and width and the mice were weighed. The tumor sizes were calculated using the formula (length×width^2)/2 and expressed as cubic millimeters (mm^3). Mice with tumors smaller than 85.3 mm^3 or larger than 417.4 mm^3 were excluded from the subsequent group formation. Thirteen groups of mice, 10 mice per group, were formed by randomization such that the group mean tumor sizes were essentially equivalent (mean of groups±standard deviation of groups=180.7±17.5 mm^3).
# This formulation was prepared once for the duration of the study. This vehicle was used as the vehicle control in the subsequent study.
# Each group was assigned to a different treatment regimen. Group 1, as the vehicle negative control group, received the vehicle administered at 8 mL/kg body weight intravenously (iv) three times per week from Days 18-39. […] Group 4 received 6.7 mg/kg SP249 as an iv injection three times per week. […] Group 9 received 30 mg/kg SP252 as an iv injection three times per week.
# During the dosing period the mice were weighed and tumors measured 1-2 times per week.
# [3] = molecular target: MDM2 (Homo sapiens, UniProt Q00987); test: Competitive fluorescence polarization assay for MDM2; type: binding
# Procedure: Dilute 1 mM (in 100% DMSO) of FAM labeled linear peptide with DMSO to 100 μM (dilution 1:10). Then, dilute from 100 μM to 10 μM with water (dilution 1:10) and then dilute with FP buffer from 10 μM to 40 nM (dilution 1:250). This is the working solution which will be a 10 nM concentration in well (dilution 1:4). Keep the diluted FAM labeled peptide in the dark until use. • 4. […] Dilute 10 mM (in 100% DMSO) with DMSO to 5 mM (dilution 1:2). Then, dilute from 5 mM to 500 μM with H2O (dilution 1:10) and then dilute with FP buffer from 500 μM to 20 μM (dilution 1:25). […] Add 10 μl of 10 nM (4×) of FAM labeled peptide into each well and incubate for 3 hr to read.
# [4] = 30 mg/kg iv three times per week
# Chain of MDM2 (Q00987 1-125): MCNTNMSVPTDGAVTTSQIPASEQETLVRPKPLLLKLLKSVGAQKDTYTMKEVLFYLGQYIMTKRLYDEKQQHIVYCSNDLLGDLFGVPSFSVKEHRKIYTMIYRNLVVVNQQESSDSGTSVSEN
Molar Ellipticity 50% TFE (222 in 50% TFE) [1] [deg cm^2dmol^−1],Molar Ellipticity Benign (222 in 0% TFE) [1] [deg cm^2dmol^−1],Molar Ellipticity TFE − Molar Ellipticity Benign [1] [deg cm^2dmol^−1],SMILES,further results
−17974,−213.2,−17760.8,"CC(=O)N[C@@H](CC(C)C)C(=O)N[C@H](C(=O)N[C@@H](Cc1ccccc1)C(=O)N[C@]1(C)CCCCCCC=CCCC[C@@](C)(C(=O)N[C@@H](C)C(=O)N[C@@H](C)C(=O)N[C@@H](C)C(=O)N[C@H](C)C(N)=O)NC(=O)[C@H](CC(C)C)NC(=O)[C@H](CCC(N)=O)NC(=O)[C@H](C)NC(=O)[C@H](Cc2c[nH]c3ccccc23)NC(=O)[C@H](Cc2ccc(O)cc2)NC(=O)[C@H](C)NC1=O)[C@@H](C)O (single isomer, unassigned) [compound 230]",
,,,CC(=O)N[C@@H](CC(C)C)C(=O)N[C@H](C(=O)N[C@@H](Cc1ccccc1)C(=O)N[C@]1(C)CCCCCCC=CCCC[C@@](C)(C(=O)N[C@@H](CO)C(=O)N[C@@H](C)C(=O)N[C@@H](C)C(N)=O)NC(=O)[C@H](CC2CCC2)NC(=O)[C@H](CCC(N)=O)NC(=O)[C@H](C)NC(=O)[C@H](Cc2c[nH]c3ccccc23)NC(=O)[C@H](Cc2ccc(O)cc2)NC(=O)[C@H](CCC(=O)O)NC1=O)[C@@H](C)O [SP154],"% BW Change ([2]; 30 mg/kg 3x/wk iv, mice): +5.7%; No. with ≧10% BW Loss ([2]; 30 mg/kg 3x/wk iv, mice): 0/10; No. with ≧20% BW Loss or death ([2]; 30 mg/kg 3x/wk iv, mice): 0/10; tolerability of dosing regimen [2, 4]: well-tolerated; No. with ≧10% BW Loss ([2]; 40 mg/kg 2x/wk iv, mice): 0/10; No. with ≧20% BW Loss or death ([2]; 40 mg/kg 2x/wk iv, mice): 2/10; tolerability of dosing regimen ([2]; 40 mg/kg iv twice a week): not tolerable; mice died during treatment ([2]; 40 mg/kg iv twice a week): 2 mice"
,,,CC[C@H](C)[C@H](NC(=O)[C@H](C)NC(=O)[C@H](C)NC(=O)[C@]1(C)CCCC=CCCCCCC[C@@](C)(NC(=O)[C@H](Cc2ccccc2)NC(=O)[C@@H](NC(=O)[C@H](CC(C)C)NC(C)=O)[C@@H](C)O)C(=O)N[C@@H](CCC(=O)O)C(=O)N[C@@H](Cc2ccc(C(=O)O)cc2)C(=O)N[C@@H](Cc2c[nH]c3ccccc23)C(=O)N[C@@H](C)C(=O)N[C@@H](CCC(N)=O)C(=O)N[C@@H](CC2CCC2)C(=O)N1)C(=O)N[C@H](C)C(N)=O [SP249] (Ac-LTF[R8]E[Phe(4-COOH)]WAQ[Cba][S5]AAI[dA]-NH2; staple 4-11),mice died during treatment ([2]; […] iv three times per week): 4 mice
,,,CC(=O)N[C@@H](CC(C)C)C(=O)N[C@H](C(=O)N[C@@H](C)C(=O)N[C@]1(C)CCCCCCC=CCCC[C@@](C)(C(=O)N[C@@H](CO)C(=O)N[C@@H](C)C(=O)N[C@@H](C)C(N)=O)NC(=O)[C@H](CC2CCC2)NC(=O)[C@H](CCC(N)=O)NC(=O)[C@H](C)NC(=O)[C@H](Cc2c[nH]c3ccccc23)NC(=O)[C@H](Cc2ccc(O)cc2)NC(=O)[C@H](CCC(=O)O)NC1=O)[C@@H](C)O [SP252],"body weight loss or deaths [2, 4]: no body weight loss or deaths noted"
,,,"CC(=O)N[C@@H](CC(C)C)C(=O)N[C@H](C(=O)N[C@@H](Cc1ccccc1)C(=O)N[C@]1(C)CCCCCCn2cc(nn2)CCC[C@@](C)(C(=O)N[C@@H](C)C(=O)N[C@@H](C)C(=O)N[C@@H](C)C(=O)N[C@@H](C)C(=O)N[C@@H](C)C(=O)N[C@H](C)C(N)=O)NC(=O)[C@H](CC(C)C)NC(=O)[C@H](CCC(N)=O)NC(=O)[C@H](C)NC(=O)[C@H](Cc2c[nH]c3ccccc23)NC(=O)[C@H](Cc2ccc(O)cc2)NC(=O)[C@H](C)NC1=O)[C@@H](C)O [SP450, Ac-LTF$4rn6AYWAQL$4a5AAAAAa-NH2]",Ki [3]: 100 to 1000 nM
,,,"CC(=O)N[C@@H](CC(C)C)C(=O)N[C@H](C(=O)N[C@@H](Cc1ccccc1)C(=O)N[C@]1(C)CCCCCCn2cc(nn2)CCC[C@@](C)(C(=O)N[C@@H](C)C(=O)N[C@@H](C)C(=O)N[C@@H](C)C(=O)N[C@@H](C)C(=O)N[C@@H](C)C(=O)N[C@H](C)C(N)=O)NC(=O)[C@H](CC(C)C)NC(=O)[C@H](CCC(N)=O)NC(=O)[C@H](C)NC(=O)[C@H](Cc2c[nH]c3ccccc23)NC(=O)[C@H](Cc2ccc(O)cc2)NC(=O)[C@H](CCC(=O)O)NC1=O)[C@@H](C)O [SP451, Ac-LTF$4rn6EYWAQL$4a5AAAAAa-NH2]",Ki [3]: 10 to 100 nM
−19921.4,124,−20045.4,CC(=O)N[C@@H](CC(C)C)C(=O)N[C@H](C(=O)N[C@@H](Cc1ccccc1)C(=O)N[C@]1(C)CCCCCCC=CCCC[C@@](C)(C(=O)N[C@@H](CO)C(=O)N[C@@H](C)C(=O)N[C@@H](Cc2ccccc2)C(N)=O)NC(=O)[C@H](CC(C)C)NC(=O)[C@H](CCC(N)=O)NC(=O)[C@H](C)NC(=O)[C@H](Cc2c[nH]c3ccccc23)NC(=O)[C@H](Cc2ccc(O)cc2)NC(=O)[C@H](C)NC1=O)[C@@H](C)O [compound 7] (Ac-LTF[R8]AYWAQL[S5]SAF-NH2; staple 4-11),
−16623.4,−398.2,16225.2,CC(=O)N[C@@H](CC(C)C)C(=O)N[C@H](C(=O)N[C@@H](Cc1ccccc1)C(=O)N[C@]1(C)CCCCCCC=CCCC[C@@](C)(C(=O)N[C@@H](CO)C(=O)N[C@@H](C)C(=O)N[C@@H](C)C(N)=O)NC(=O)[C@H](CC(C)C)NC(=O)[C@H](CCC(N)=O)NC(=O)[C@H](C)NC(=O)[C@H](Cc2c[nH]c3ccccc23)NC(=O)[C@H](Cc2ccc(O)cc2)NC(=O)[C@H](C)NC1=O)[C@@H](C)O [compound 11] (Ac-LTF[R8]AYWAQL[S5]SAA-NH2; staple 4-11),
−21319.4,−909,20410.4,CCCC[C@H](NC(=O)[C@H](CCC(N)=O)NC(=O)[C@H](CCC(N)=O)NC(=O)[C@]1(C)CCCC=CCCCCCC[C@@](C)(NC(=O)[C@H](Cc2ccccc2)NC(C)=O)C(=O)N[C@@H](C)C(=O)N[C@@H](Cc2ccc(O)cc2)C(=O)N[C@@H](Cc2c[nH]c3ccccc23)C(=O)N[C@@H]([C@@H](C)O)C(=O)N[C@@H](C)C(=O)N[C@@H](CC(C)C)C(=O)N1)C(=O)N[C@@H](C(N)=O)C(C)C [compound 41] (Ac-F[R8]AYWTAL[S5]QQ[Nle][dV]-NH2; staple 2-9),
−18247.4,−15334.5,2912.9,CC(=O)N[C@@H](CC(C)C)C(=O)N[C@H](C(=O)N[C@@H](Cc1ccccc1)C(=O)N[C@]1(C)CCCCCCC=CCCC[C@@](C)(C(=O)N[C@@H](Cc2c[nH]cn2)C(=O)N[C@@H](Cc2c[nH]cn2)C(=O)N[C@@H](CC(C)C)C(=O)N[C@H](C)C(N)=O)NC(=O)[C@H](CC(C)C)NC(=O)[C@H](CCC(N)=O)NC(=O)[C@H](C)NC(=O)[C@H](Cc2c[nH]c3ccccc23)NC(=O)[C@H](Cc2ccc(O)cc2)NC(=O)[C@H](C)NC1=O)[C@@H](C)O [compound 43] (Ac-LTF[R8]AYWAQL[S5]HHL[dA]-NH2; staple 4-11),
−21509.7,−102.6,,CCCC[C@H](NC(=O)[C@H](C)NC(=O)[C@H](C)NC(=O)[C@]1(C)CCC/C=C/CCCCCC[C@@](C)(NC(=O)[C@H](Cc2ccccc2)NC(=O)[C@@H](NC(=O)[C@H](CC(C)C)NC(C)=O)[C@@H](C)O)C(=O)N[C@@H](C)C(=O)N[C@@H](Cc2ccc(O)cc2)C(=O)N[C@@H](Cc2c[nH]c3ccccc23)C(=O)N[C@@H](C)C(=O)N[C@@H](CCC(N)=O)C(=O)N[C@@H](CC(C)C)C(=O)N1)C(=O)N[C@@H](C)C(N)=O [compound 69],
−17957,−121.2,−17835.9,CC[C@H](C)[C@H](NC(=O)[C@H](C)NC(=O)[C@H](C)NC(=O)[C@]1(C)CCC/C=C/CCCCCC[C@@](C)(NC(=O)[C@H](Cc2ccccc2)NC(=O)[C@@H](NC(=O)[C@H](CC(C)C)NC(C)=O)[C@@H](C)O)C(=O)N[C@@H](C)C(=O)N[C@@H](Cc2ccc(O)cc2)C(=O)N[C@@H](Cc2c[nH]c3ccccc23)C(=O)N[C@@H](C)C(=O)N[C@@H](CCC(N)=O)C(=O)N[C@@H](CC(C)C)C(=O)N1)C(=O)N[C@H](C)C(N)=O [compound 71],
−19032.6,−477.9,−18554.7,CC(=O)N[C@@H](CC(C)C)C(=O)N[C@H](C(=O)N[C@@H](Cc1ccccc1)C(=O)N[C@]1(C)CCCCCCC=CCCC[C@@](C)(C(=O)N[C@@H](C)C(=O)N[C@@H](C)C(=O)N[C@@H](C)C(=O)N[C@@H](C)C(=O)N[C@H](C)C(N)=O)NC(=O)[C@H](CC(C)C)NC(=O)[C@H](CCC(N)=O)NC(=O)[C@H](C)NC(=O)[C@H](Cc2c[nH]c3ccccc23)NC(=O)[C@H](Cc2ccc(O)cc2)NC(=O)[C@H](C)NC1=O)[C@@H](C)O [compound 233],
